The supplement of paper PMC11061612

Experiments:
D-263MG (Glioblastoma) = assay: Bliss excess, mean over the matrix (fraction); higher = more synergy;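 further: after 72 h of two-drug dosing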
How it was run: (§1)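 After 24 hours at 37°C and 5% CO2 in 1536-well plates, cells in DMEM/F12 or RPMI plus 10% FBS received two-drug dose matrices for 72 hours. Viability came from CellTiter-Glo 2.0 luminescence and was scaled as inhibition, anchored at 0 by vehicle wells and at 1 by blank wells. Combination Emax is taken as the second-highest inhibition in the matrix, and Bliss excess as the observed combination effect less EA + EB − EA·EB, with EA and EB the single-agent effects.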

ACHN (Kidney Carcinoma) = assay: combination Emax (second highest fraction inhibited in the dose matrix, 72 h); higher = more inhibition; extreme values may be limits of the assay
How it was run: as §1

EW-24 (Ewing's Sarcoma) = assay: as above
How it was run: as §1

[1] = tested on: EoL-1-cell (Acute Myeloid Leukemia); assay: as above
How it was run: as §1

[2] = tested on: HGC-27 (Gastric Carcinoma); assay: as above
How it was run: as §1

[3] = tested on: HOP-62 (Lung Adenocarcinoma); assay: as above
How it was run: as §1

[4] = tested on: Hs-766T (Pancreatic Carcinoma); assay: as above
How it was run: as §1

[5] = tested on: KARPAS-299 (T-Cell Non-Hodgkin's Lymphoma); assay: as above
How it was run: as §1

[6] = tested on: KMOE-2 (Acute Myeloid Leukemia); assay: as above
How it was run: as §1

[7] = tested on: KYSE-450 (Esophageal Squamous Cell Carcinoma); assay: as above
How it was run: as §1

NB69 (Neuroblastoma) = assay: as above
How it was run: as §1

[8] = tested on: NCI-H1915 (Non-Small Cell Lung Carcinoma); assay: as above
How it was run: as §1

[9] = tested on: NCI-H358 (Lung Adenocarcinoma); assay: as above
How it was run: as §1

[10] = tested on: NCI-H727 (Other Solid Carcinomas); assay: as above
How it was run: as §1

[11] = tested on: OE19 (Esophageal Adenocarcinoma); assay: as above
How it was run: as §1

[12] = tested on: OVCAR-4 (Ovarian Carcinoma); assay: as above
How it was run: as §1

[13] = tested on: RF-48 (B-Cell Non-Hodgkin's Lymphoma); assay: as above
How it was run: as §1

[14] = tested on: SCC-15 (Oral Cavity Carcinoma); assay: as above
How it was run: as §1

[15] = tested on: TE-1 (Esophageal Squamous Cell Carcinoma); assay: as above
How it was run: as §1

UACC-62 (Melanoma) = assay: as above
How it was run: as §1

SMILES | Bliss excess (D-263MG (Glioblastoma)) | combination Emax (ACHN (Kidney Carcinoma)) | combination Emax (EW-24 (Ewing's Sarcoma)) | combination Emax [1] | combination Emax [2] | combination Emax [3] | combination Emax [4] | combination Emax [5] | combination Emax [6] | combination Emax [7] | combination Emax (NB69 (Neuroblastoma)) | combination Emax [8] | combination Emax [9] | combination Emax [10] | combination Emax [11] | combination Emax [12] | combination Emax [13] | combination Emax [14] | combination Emax [15] | combination Emax (UACC-62 (Melanoma))
Cn1cnc2c(F)c(Nc3ccc(Br)cc3Cl)c(C(=O)NOCCO)cc21 [Selumetinib] + CCN(CCO)CCCOc1ccc2c(Nc3cc(CC(=O)Nc4cccc(F)c4)[nH]n3)ncnc2c1 [AZD2811] (first compound max 10 µM, 7x7, partner max 1 µM) | -0.0385 | 0.366 | 0.427 | 1 | 0.71 | 0.475 | 0.515 | 0.252 | 0.999 | 0.209 | 0.921 | 0.6 | 0.499 | 0.622 | 0.796 | 0.268 | 0.312 | 0.36 | 0.49 | 0.815
Cn1cnc2c(F)c(Nc3ccc(Br)cc3Cl)c(C(=O)NOCCO)cc21 [Selumetinib] + C[C@@H]1COCCN1C2=NC(=NC(=C2)C3(CC3)[S@](=N)(=O)C)C4=C5C=CNC5=NC=C4 [AZD6738] (first compound max 10 µM, 7x7, partner max 10 µM) | -0.03 | 0.804 | 0.667 | 1 | 0.734 | 0.569 | 0.567 | 0.929 | 1 | 0.356 | 0.999 | 0.701 | 0.586 | 0.652 | 0.606 | 0.532 | 0.371 | 0.435 | 0.585 | 0.803
CC(=O)Nc1cccc(-n2c(=O)n(C3CC3)c(=O)c3c(Nc4ccc(I)cc4F)n(C)c(=O)c(C)c32)c1 [Trametinib] + Cc1nc(-c2cn3c(n2)-c2ccc(-c4cnn(C(C)(C)C(N)=O)c4)cc2OCC3)n(C(C)C)n1 [Taselisib] (first compound max 1 µM, 7x7, partner max 10 µM) | 0.132 | 0.643 | 0.6 | 1 | 0.924 | 0.778 | 0.773 | 0.639 | 1 | 0.753 | 1 | 1 | 0.961 | 0.988 | 0.97 | 0.518 | 0.345 | 1 | 0.75 | 0.996
CC1(C)CCC(CN2CCN(c3ccc(C(=O)NS(=O)(=O)c4ccc(NCC5CCOCC5)c([N+](=O)[O-])c4)c(Oc4cnc5[nH]ccc5c4)c3)CC2)=C(c2ccc(Cl)cc2)C1 [Venetoclax] + C1CN(CCC1(C(=O)N[C@@H](CCO)C2=CC=C(C=C2)Cl)N)C3=NC=NC4=C3C=CN4 [Capivasertib] (first compound max 1 µM, 7x7, partner max 3 µM) | -0.0151 | 0.81 | 0.395 | 1 | 0.814 | 0.14 | 0.225 | 0.837 | 0.581 | 0.197 | 0.426 | 0.141 | 0.33 | 0.482 | 0.306 | 0.1 | 0.364 | 0.226 | 0.162 | 0.392
CC1(C)CCC(CN2CCN(c3ccc(C(=O)NS(=O)(=O)c4ccc(NCC5CCOCC5)c([N+](=O)[O-])c4)c(Oc4cnc5[nH]ccc5c4)c3)CC2)=C(c2ccc(Cl)cc2)C1 [Venetoclax] + C=CCn1c(=O)c2cnc(Nc3ccc(N4CCN(C)CC4)cc3)nc2n1-c1cccc(C(C)(C)O)n1 [AZD1775] (first compound max 1 µM, partner max 1 µM) | 0.0494 | 0.96 | 0.34 | 1 | 0.54 | 0.446 | 0.53 | 0.951 | 0.966 | 0.614 | 0.849 | 0.634 | 0.798 | 0.689 | 0.223 | 0.588 | 0.667 | 0.327 | 0.603 | 0.578
CC1(C)CCC(CN2CCN(c3ccc(C(=O)NS(=O)(=O)c4ccc(NCC5CCOCC5)c([N+](=O)[O-])c4)c(Oc4cnc5[nH]ccc5c4)c3)CC2)=C(c2ccc(Cl)cc2)C1 [Venetoclax] + CCN(CCO)CCCOc1ccc2c(Nc3cc(CC(=O)Nc4cccc(F)c4)[nH]n3)ncnc2c1 [AZD2811] (first compound max 1 µM, 7x7, partner max 1 µM) | 0.0431 | 0.739 | 0.457 | 1 | 0.809 | 0.342 | 0.291 | 0.818 | 0.293 | 0.27 | 0.777 | 0.224 | 0.276 | 0.317 | 0.779 | 0.333 | 0.43 | 0.295 | 0.298 | 0.28
